Data on 7 compounds can be found in the NIST ThermoML archive (doi:10.1021/je700123q).

For data set [1] the following is noted: Liquid; for Critical pressure: Direct measurement; for Critical temperature: Visual observation in an unstirred cell.
The nature of data set [2]: xn = mol fraction of the nth substance listed. The following applies: Liquid.

± gives the expanded uncertainty stated by the source.

For the compound `FC(OC(F)(F)F)C(F)(F)F` (stereo not drawn) [1,1,1,2-tetrafluoro-2-(trifluoromethoxy)ethane], in data set [1], the Critical density is 580 ± 4 kg/m3, the Critical pressure came to 2621 ± 4 kPa and the Critical temperature is given as 377.26 ± 0.06 K.
For `FC(OC(F)(F)F)C(F)(F)F` (stereo not drawn) [1,1,1,2-tetrafluoro-2-(trifluoromethoxy)ethane] + COC(F)(F)C(F)(F)F, the Critical density in data set [2] (x1 = 0.1694) is 510 ± 6 kg/m3; in data set [2] (x1 = 0.2941), 521 ± 6 kg/m3; in data set [2] (x1 = 0.4706), 536 ± 6 kg/m3; in data set [2] (x1 = 0.6565), 554 ± 6 kg/m3; in data set [2] (x1 = 0.7952), 566 ± 7 kg/m3; in data set [2] (x1 = 1), 580 ± 7 kg/m3.
In the case of `FC(OC(F)(F)F)C(F)(F)F` (stereo not drawn) [1,1,1,2-tetrafluoro-2-(trifluoromethoxy)ethane] + COC(F)(F)F, the Critical density came to 480 ± 6 kg/m3 in data set [2] (x1 = 0.1455); 506 ± 6 kg/m3 in data set [2] (x1 = 0.2585); 523 ± 6 kg/m3 in data set [2] (x1 = 0.4147); 539 ± 6 kg/m3 in data set [2] (x1 = 0.5954); 558 ± 7 kg/m3 in data set [2] (x1 = 0.7403); 580 ± 7 kg/m3 in data set [2] (x1 = 1).
Take `COC(F)(F)C(F)(F)F` [methyl pentafluoroethyl ether]: in data set [1], the Critical density was found to be 491 ± 6 kg/m3, the Critical pressure is on record as 2885 ± 6 kPa and the Critical temperature is recorded as 406.82 ± 0.06 K.
As to `COC(F)(F)C(F)(F)F` [methyl pentafluoroethyl ether] + FC(OC(F)(F)F)C(F)(F)F, the Critical density in data set [2] (x2 = 0) came out at 491 ± 6 kg/m3.
On to `COC(F)(F)F` [trifluoromethoxymethane], for which, in data set [1], the Critical density worked out at 459 ± 5 kg/m3, the Critical pressure is listed as 3640 ± 6 kPa and the Critical temperature is on record as 377.92 ± 0.06 K.
Turning to `COC(F)(F)F` [trifluoromethoxymethane] + FC(OC(F)(F)F)C(F)(F)F, the Critical density in data set [2] (x2 = 0) worked out at 459 ± 5 kg/m3.
